Laboratory results: patent US20030185792A1, “Morphogen analogs of bone morphogenic proteins” (Curis, Inc., priority 1996, published 2003)
“Also recorded” adds a separate entry of the source. Bridge positions count the residues as written; N and C are the ends. Ends that are not written are not given here.

Key:
[1] = test system: OP-1 receptor-enriched plasma membrane fraction of ROS cells; experiment: Radioligand receptor assay: displacement of 125I-labeled OP-1 from ROS cell plasma membranes; type: binding, rat; conditions: for effect on binding of 125I-labeled OP-1 to the receptor: Example 3; for ability to displace 125I-labeled soluble OP-1 from ROS cell membranes: Example 2, FIGS. 10A and 10B
Method: In a second series of experiments, the ability of unlabeled soluble OP-1 and unlabeled peptides F1-2, F2-2, F2-3, H-n2 and H-c2 to displace ^125I labeled soluble OP-1 from ROS cell membranes was measured. The activities of peptides F2-2 and F2-3 relative to soluble OP-1 are shown in FIG. 10A, and the activities of peptides Fi-2, H-n2 and H-c2 relative to soluble OP-1 are shown in FIG. 10B. OP-1 receptor-enriched plasma membranes of ROS cells were incubated for 20 hrs at 4° C. with ^125I-labeled soluble OP-1 and unlabeled peptide. Receptor bound material was separated from unbound material by centrifugation at 39,500×g. The resulting pellet was harvested and washed with 50 mM HEPES buffer, pH 7.4 containing 5 mM MgCl2 and 1 mM CaCl2 Radioactivity remaining in the pellet was determined by means of a gamma counter.
(§1) Assay of peptides: The receptor-binding activities of OP-1 synthetic peptides were determined by a radio-ligand receptor assay using ^125I-labeled OP-1 as ligand, and an OP-1 receptor-enriched plasma membrane fraction of ROS cells. The assay is based on competition between radiolabeled OP-1 and unlabeled OP-1 or peptide for binding to membrane-bound receptor. A well characterized ROS cell based in vitro bio-assay was used to examine the effects of OP-1 peptides on basal as well as OP-1 induced cellular alkaline phosphatase activity.
i. Radio-receptor Assay: The receptor-binding activities of various OP-1 synthetic peptides can be determined by an equilibrium displacement binding isotherm assay using ^125I-labeled OP-1 as ligand and OP-1 receptor-enriched plasma membrane fraction of ROS cells. Highly purified OP-1 can be radioiodinated to a specific activity of 70-78 μCi/ug by a modified procedure of lactoperoxidase method. The percent bindability of radioiodinated OP-1 to excess receptor is 30-37%. Plasma membranes enriched with OP-1 receptors from ROS cells can be isolated as is known in the art. […] In a typical assay, fixed amounts of ^125I-labeled sol. OP-1 (˜80,000 cpm) are incubated with fixed amount of receptor-enriched plasma membrane fraction in the presence (5 μg, for non-specific binding) or absence of excess unlabeled OP-1 (for total binding). Displacement curves are generated with increasing concentrations of OP-1 peptide (0.032-50 μM) or OP-1 standard preparation (5-2000 ng). The assay incubations are carried out in a reaction volume of 300 μl with shaking for 22 hrs. at 4° C. Separation of bound and free ^125I-labeled OP-1 is by centrifugation (39,500×g, 30 minutes). The supernatants are aspirated and pellets are washed before counting in a gamma counter (Packard Instr., Downers Grove, Ill.). The concentration of OP-1 peptide required to give 50% inhibition of total specific binding of ^125I-labeled OP-1 (ED50) is calculated from competitive data.

ROS cells = experiment: ROS cell based alkaline phosphatase bioassay; parameters: species or system rat; conditions: for effect on basal cell responsiveness (alkaline phosphatase activity): no OP-1; for effect on OP-1 induced cell responsiveness (agonist/antagonist behaviour): peptide together with OP-1; for IC50: peptide together with OP-1 (1.33 nM), read-out: peptide concentration giving 50% inhibition of cellular responsiveness to OP-1
Method: In a first series of experiments, increasing concentrations of peptides F2-2 (FIG. 9A), F2-3 (FIG. 9B), Hn-2 (FIG. 9C) and Hc-2 (FIG. 9D) were added to ROS cells either alone (open bars) or in combination with 40 ng/ml soluble OP-1 (filled bars) and their effect on alkaline phosphatase activity measured. Soluble OP-1 is the form of OP-1 in which the pro-domain is still attached to the mature portion of OP-1 (see WO 94/03600). A basal alkaline phosphatase activity is shown by the line and represents the alkaline phosphatase activity of cells incubated in the absence of both soluble OP-1 and peptide.
as §1
i. ROS Cell Based Alkaline Phosphatase Assay: OP-1 synthetic peptides that bind OP-1 receptors are further analyzed by in vitro bioassay. This allows defining the role of OP-1 peptides at the receptor-binding site. Some of the OP-1 peptides that effectively interact with receptors could inhibit OP-1 induced target cell responsiveness, thereby acting as functional antagonists. Alternatively, they may mimic OP-1 functions inducing alkaline phosphatase activity in ROS cells. Creative BioMolecules has developed and fully validated ROS cell in vitro assay for OP-1. An assay procedure as described earlier is essentially followed to determine the biological activities of OP-1 peptides. In a typical experiment, rat Osteosarcoma (17/2.8) cells are plated in 96 well plates (3.0×10^4 cells/well) and incubated overnight at 37° C. in 5-6% CO2 incubator. Next day, the plates are examined to make sure that cells are healthy & confluent. Cells are treated with increasing concentrations of OP-1 standard (1-10,000 ng/ml) or OP-1 synthetic peptides (0.02-200 μM) alone or with OP-1 standard prepared in medium containing 1% FBS and incubated for 2 days at 37° C. in 5-6% CO2 incubator. The cellular content of alkaline phosphatase activity is determined by the method of Reddi and Huggins. Enzyme estimations are routinely carried out in 96 well plates. Following removal of culture medium, cells are washed with pre-warmed PBS (150 μl) and further incubated in 100 ul of pre-warmed 1% Triton X-100 for 30 minutes at 37 C. Plates are centrifuged for 10 minutes at full speed, and recovered samples (each 15 μl) are assayed for enzyme activity by adding 90 ul p-nitrophenyl phosphate (Sigma) as a substrate in 0.05 M glycine-NaOH buffer, pH 9.3 and incubating for 20 minutes at 37° C. The reaction is stopped by adding 75 μl of 0.2 N NaOH/well and absorbance at 405/490 nm is measured on a Dynatech MR 700 plate reader. Results are expressed as concentration of peptide inhibitor (with antagonist activity) required to give 50% inhibition of maximum response to OP-1 standard. On the other hand, the activities of peptides that stimulate cell responsiveness (with agonist activity) are expressed relative to OP-1 standard. FIG. 23 illustrates the dose-related effects of OP-1 preparations on stimulation of alkaline phosphatase activity as determined in ROS cell based in vitro assay.

How did the “effect on binding of 125I-labeled OP-1 to the receptor” value (shortened to “effect on binding”) [1] turn out when “H-1: SEQ ID No. 11; covers the whole Heel region, cyclized near the knot region (CAFPLNSYMNATNHAIVQTLVHFINPETVPKC; disulfide 1-32 (inferred); listed as Homo sapiens)” was run?
The value was “interfered”.

What about the “effect on basal cell responsiveness (alkaline phosphatase activity)” value (shortened to “effect on basal cell responsiveness”) (ROS cells; Example 3, peptide alone) of the same substance?
The value was “effective only at very high concentrations”.

And the “effect on OP-1 induced cell responsiveness (agonist/antagonist behaviour)” value (“effect … (agonist/antagonist behaviour)” below) (ROS cells; Example 3)?
The value was “weak antagonist; also recorded: antagonists”.

And the “peptide concentrations required to inhibit the OP-1 induced cell response” value (ROS cells; Example 3, with OP-1)?
The value was 44 to 220 µM.

Which results are given for “F1-2: SEQ ID No. 6; 15-residue finger 1 loop region peptide cyclized at the ends (CFRDLGWQDWIIAPC; cyclized; listed as Homo sapiens)”?
ability to displace 125I-labeled soluble OP-1 from ROS cell membranes [1]: little or no ability to displace; effect on binding of 125I-labeled OP-1 to the receptor [1]: relatively weak activity; peptide concentration required to inhibit binding of 125I-labeled OP-1 to the receptor ([1]; Example 3, FIG. 14): 179 µM; effect on binding of 125I-labeled OP-1 to the receptor ([1]; listed as Fi-2): interfered; effect on basal cell responsiveness (alkaline phosphatase activity) (ROS cells; Example 3, peptide alone): weakly inhibiting; effect on OP-1 induced cell responsiveness (agonist/antagonist behaviour) (ROS cells; Example 3): relatively weak antagonist; IC50 (ROS cells; Example 3): 10 µM; effect on OP-1 induced cell responsiveness (agonist/antagonist behaviour) (ROS cells; Example 3, listed as Fi-2): antagonists

Which “ability to displace 125I-labeled soluble OP-1 from ROS cell membranes” value (from here on “ability”) [1] does the source give for “H-N2: SEQ ID No. 12; 11 residues (plus Cys) in the loop on the N-terminal end of the Heel helix (CLNSYMNATNHAC; listed as Homo sapiens)” here?
The value was “little or no ability to displace”.

And the “effect on binding” value [1]?
Its value is “failed to inhibit”.

What about the “effect on basal cell responsiveness” value (ROS cells; Example 3, peptide alone) of the same substance?
The value was “not effective”.

And the “effect … (agonist/antagonist behaviour)” value (ROS cells; Example 3)?
The value was “not effective”.

What about the “effect on alkaline phosphatase activity” value (ROS cells; either alone or in combination with soluble OP-1, FIG. 9C) of the same substance?
Its value is “little or no effect”.

“F2-1: SEQ ID No. 16; covers the entire finger 2 region of OP-1, cyclized close to the knot region (CLNAISVLYFDDSSNVILKKYRNMVVRC; disulfide 1-28 (inferred); listed as Homo sapiens)” was tested. Which “effect on basal cell responsiveness” value (ROS cells; Example 3, peptide alone) did it give?
The value was “effectively inhibited”.

What about the “effect … (agonist/antagonist behaviour)” value (ROS cells; Example 3) of the same substance?
Its value is “effectively inhibited”.

And the IC50 (ROS cells; Example 3)?
Its IC50 is 8 µM.

What does the source list for “F2-2c: SEQ ID No. 18; control cyclized peptide, 9 residues of F2-2 in reverse order (CIVNSSDDFYC; disulfide 1-11 (inferred); listed as Homo sapiens) [reference compound]”?
effect on binding of 125I-labeled OP-1 to the receptor [1]: inactive; effect on basal cell responsiveness (alkaline phosphatase activity) (ROS cells; Example 3, peptide alone): no effect; effect on OP-1 induced cell responsiveness (agonist/antagonist behaviour) (ROS cells; Example 3): no effect

With “H-C2: SEQ ID No. 13; 7 residues (plus Cys) in the loop on the C-terminal end of the Heel helix (CCFINPETVCC; listed as Homo sapiens)” as the substance, how does the “ability” value [1] read?
The value was “little or no ability to displace”.

And the “effect on binding” value [1]?
Its value is “interfered”.

What about the “effect on binding” value ([1]; peptide at 8 μM, FIG. 14) of the same substance?
The value was “potentiated”.

What about the “effect on basal cell responsiveness” value (ROS cells; Example 3, peptide alone) of the same substance?
Its value is “inhibiting the basal”.

And the “effect … (agonist/antagonist behaviour)” value (ROS cells; Example 3)?
Its value is “antagonists”.

And the IC50 (ROS cells; Example 3)?
Its IC50 is 5 µM.

What about the “overall judgement of activity (lead peptides)” value (ROS cells; Example 3 summary, antagonistic (H-C2) and modulating (F2-3) activity) of the same substance?
The value was “highly active”.

And the “peptide concentration at which the activity of soluble OP-1 is antagonized” value (ROS cells; with 40 ng/ml soluble OP-1, FIG. 9D)?
Its value is “greater than 5 μM”.

Which “effect on binding” value [1] does the source give for “F1-1: SEQ ID No. 5; cyclized peptide covering the complete finger 1 region of OP-1 (CELYVSFRDLGWQDWIIAPEGYAAYC; cyclized; listed as Homo sapiens)” here?
The value was “interfered”.

And the “peptide concentrations effective to inhibit basal cellular responsiveness” value (ROS cells; Example 3, peptide alone)?
The value was 52 to 260 µM.

And the “effect … (agonist/antagonist behaviour)” value (ROS cells; Example 3)?
Its value is “antagonists”.

And the IC50 (ROS cells; Example 3)?
Its IC50 is 20 µM.

“F2-2: SEQ ID No. 17; 9 residues at the tip of finger 2 including 2 Asp residues, ends cyclized (CYFDDSSNVIC; cyclized; listed as Homo sapiens)” was tested. Which “ability” value [1] did it give?
The value was “cannot completely displace”.

And the “effect on binding” value [1]?
Its value is “effectively competed”.

What about the “behaviour in the alkaline phosphatase assay (agonist/antagonist)” value (ROS cells; Example 2, alone or with 40 ng/ml soluble OP-1) of the same substance?
The value was “weak OP-1 agonists”.

What about the “effect on responsiveness to OP-1” value (ROS cells; Example 3, at higher peptide concentrations (above 0.6-60 μM)) of the same substance?
Its value is “inhibited the responsiveness to OP-1”.

What about the “potentiation of OP-1 induced cell responsiveness” value (ROS cells; Example 3, peptide 0.6-60 μM, FIG. 16) of the same substance?
Its value is 20%.

What about the “effect … (agonist/antagonist behaviour)” value (ROS cells; Example 3) of the same substance?
Its value is “weak agonist; also recorded: potentiating the cell responsiveness to OP-1”.

And the “peptide concentrations at which OP-1 induced responsiveness is potentiated” value (ROS cells; Example 3, with OP-1)?
The value was 0.6 to 60 µM.

What about the “increase of alkaline phosphatase activity relative to soluble OP-1 alone” value (ROS cells; peptide about 60 μM with 40 ng/ml soluble OP-1, FIG. 9A) of the same substance?
The value was “about 20%”.

And the “effect on basal alkaline phosphatase level” value (ROS cells; peptide alone, about 60 μM, Example 2, FIG. 9A)?
The value was “double”.
